Assays:
[1] = test system: GABA spontaneous inhibitory postsynaptic currents; test: GABA spontaneous inhibitory postsynaptic currents (sIPSCs); type: cell-based; conditions: compound alone
[2] = test system: spreading depolarization in mouse brain slices; test: KCl-induced spreading depolarization threshold in mouse brain slices; type: cell-based; conditions: for KCl concentration necessary to initiate spreading depolarization (SD threshold): test compound alone in ACSF bath
Description: (§1) In brain slice studies normoxic SD is induced by briefly raising [K^+]o. An ischemic version of SD, the anoxic depolarization (AD), is induced by removing O2/glucose from the aCSF for about 10 min. Intrinsic optical signals (IOSs) represent change in the way tissue scatters light. Light transmittance (LT), essentially unscattered light, is imaged using a charge-coupled device (CCD) to measure second-by-second regional DLT during periods of 1 h or more. The front of the propagating SD or AD event is imaged as an elevated LT, caused by cell swelling. A negative voltage shift, the electrophysiological signature of SD, is simultaneously recorded extracellularly. Normoxic SD is typically the cortical occurrence in migraine, while an anoxic condition is more typical of ischemic attacks and stroke.
(§2) To determine the threshold for evoked spreading depolarization in mouse brain slices, mice (C57Bl6J, P30-50) were deeply anesthetized by ketamine/xylazine mix (i.p. 85 and […], respectively), cardiac perfused with cutting solution (110 mM N-Methyl-D-glucamine, 10 mM glucose, 6 mM magnesium sulfate, 3 mM KCl, 25 mM sodium bicarbonate, 1.25 mM sodium monophosphate, 0.2 mM calcium chloride, and 0.4 mM ascorbic acid equilibrated with 95% O2/5% CO2), and decapitated. The brain was rapidly extracted, cerebellum removed, forebrain hemisected, and 300 μm thick coronal slices were cut on a vibratome.
Slices were first incubated in the cutting solution at 37 C for 10 minutes and then transferred to artificial cerebrospinal fluid (“ACSF”: 126 mM sodium chloride, 10 mM glucose, 1 mM magnesium sulfate, 3 mM KCl, 25 mM sodium bicarbonate, 1.25 mM sodium monophosphate, 2 mM calcium chloride, and 0.4 mM ascorbic acid equilibrated with 95% O2/5% CO2).
(§3) In all in vitro experiments, a pair of slices were then transferred to a recording chamber continuously superfused with ACSF at […] 33-34° C. For pharmacological analysis, slices were pre-incubated in the recording chamber with test compound for at least for 20 minutes. Slow tissue depolarizations (SD) were detected by DC potential shift or imaging of intrinsic optical signals (IOS) in the brain slice. DC potential were recorded using glass pipette electrodes containing ACSF (2-3MO). Signals were amplified with a DC amplifier (MultiClamp 700B), digitized (Digidata 1550B) and analyzed with the Clampfit program ([…]). IOS were detected by acquiring images of brain slices with a CMOS camera (Hamamatsu ORCA). Images were acquired at 0.2-0.5 Hz and analyzed with imageJ software.
First, by incrementally elevating the KCl concentration of bath ACSF every 5 minutes (initial starting concentration of 6 mM, then elevated by +1 mM at 5-minute intervals). The KCl concentration that triggered the first SD was considered as the SD threshold. In experiments using the test drug (fenfluramine), the drug was added to the solution before the KCl challenge.

Sig1R = conditions: with (+)-SKF-10,047; cited from earlier work
[3] = cited from earlier work
[4] = test system: spreading depolarization in cortical slices; test: Oxygen/glucose deprivation (OGD) model of spreading depolarization in brain slices; type: cell-based, mouse; conditions: for time to onset of spreading depolarization: treatment vs non-treatment
Description: as §1
as §2, with “vibratome. […]” for “vibratome.”
as §3, with “For pharmacological analysis, slices were pre-incubated in the recording chamber with test compound for at least for 20 minutes.” left out, “software. […]” for “software.”

[5] = target: Sig1 receptor [Sig1R]/binding immunoglobulin protein (BiP) (Homo sapiens, UniProt Q99720); conditions: with PRE-084; cited from earlier work
Sig1 receptor [Sig1R]/binding immunoglobulin protein (BiP), sequence (Q99720 whole entry): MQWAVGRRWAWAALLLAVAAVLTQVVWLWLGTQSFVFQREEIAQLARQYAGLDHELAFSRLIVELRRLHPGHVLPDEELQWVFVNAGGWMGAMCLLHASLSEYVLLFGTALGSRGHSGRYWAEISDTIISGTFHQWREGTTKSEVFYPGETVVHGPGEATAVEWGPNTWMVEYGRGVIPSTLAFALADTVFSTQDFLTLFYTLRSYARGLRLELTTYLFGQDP

Structure (SMILES): NCCc1c[nH]c2ccc(O)cc12 [serotonin, 5-hydroxytryptamine]
- GABA spontaneous inhibitory postsynaptic currents [1]: increase

Structure (SMILES): CN1CC2c3ccccc3Oc3ccc(Cl)cc3C2C1 (stereo not drawn) [asenapine]
- effect of multi-5-HT receptor antagonist on protective effects of fenfluramine ([2]; KCl model, asenapine added to fenfluramine): did not affect

Structure (SMILES): COc1ccc2c(c1)[C@]13CCCC[C@@H]1[C@H](C2)N(C)CC3 [dextromethorphan]
- KCl concentration necessary to initiate spreading depolarization (SD threshold) ([2]; KCl model): raising the spreading depolarization threshold

Structure (SMILES): CCNC(C)Cc1cccc(C(F)(F)F)c1 (stereo not drawn) [fenfluramine, 3-trifluoromethyl-N-ethylamphetamine]
- (+)-SKF-10,047-induced increase in the twitch contraction amplitude (Sig1R): potentiated
- protective effect of fenfluramine with addition of a 5-HT4 antagonist ([2]; KCl model, 5-HT4 antagonist added): only slightly diminished
- KCl concentration necessary to initiate spreading depolarization (SD threshold) ([2]; KCl model): raising the KCl concentration necessary to initiate spreading depolarization
- additivity or synergism on spreading depolarization threshold ([2]; fenfluramine with added serotonin): lack of additivity or synergism
- fenfluramine's effects on spreading depolarization under blockade of the GABA receptors ([2]; with blockade of the GABA receptors): does not abolish
- cardiac adverse effects with chronic use ([3]; chronic use at doses of 60 to 120 mg, some patients): cardiac valve abnormalities or pulmonary hypertension
- anticonvulsant/antiseizure activity ([3]; low dose, Dravet Syndrome and Lennox Gastaut syndrome): anticonvulsant/antiseizure activity
- time to onset of spreading depolarization ([4]; 0% oxygen and 0 mM glucose): non-significant difference
- time to onset of spreading depolarization ([4]; 0% oxygen and 2 mM glucose): significant increase in time to onset
- effect on SD under anoxic conditions (AD) ([4]; anoxic conditions): positive effect
- Sig1R/BiP dissociation induced by the Sig1R agonist PRE-084 [5]: potentiated
- GABA spontaneous inhibitory postsynaptic currents [1]: increase

Source: patent US20240299317A1, “Fenfluramine for Treatment of Conditions Associated with Spreading Depolarization” (ZOGENIX INTERNATIONAL LIMITED, priority 2021, published 2024)
